Measured values from patent publication US20220153732A1, “PROTEIN SECRETION INHIBITORS” (KEZAR LIFE SCIENCES, priority 2019, published 2022).

Columns and labels:
Assay type in all cases: cell-based
[1] = tested on: PD1-ss+10aa/Gaussia Luciferase; test: Dox-Induced PD1-ss-Gluc Assay; conditions: 24 hr doxycycline induction, 293FRT/TO cells, Gaussia luciferase signal; read-out: 24 hr Dox Inducible PD1ssGluc 293FRT/TO: Mean IC50
Summary of the method: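 Compounds, diluted in DMSO/media with doxycycline, were added to cells plated a day earlier and kept at 37° C under 5% CO2. The cells stably express a Gaussia luciferase construct fused to PD1-ss+10aa, induced via the T-REx system. Unassigned stereochemistry means mixture data.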

[2] = tested on: TNFα-FL/Gaussia Luciferase; test: Dox Induced TNFα-FL-Gluc Assay; conditions: 24 hr doxycycline induction, 293FRT/TO cells, Gaussia luciferase signal; read-out: 24 hr Dox Inducible TNFaFLGluc 293FRT/TO: Mean IC50
Summary of the method: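 Compounds were added in doxycycline-containing DMSO/media to cells plated the previous day and incubated at 37° C under 5% CO2. These cells stably express a TNFα-FL/Gaussia luciferase cDNA whose expression is under T-REx (Dox-inducible) control, selected with Hygromycin and Blasticidin.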

[3] = tested on: HER3-ss+4aa/Gaussia Luciferase; test: Dox-Induced Her3-ss-Gluc Assay; conditions: 24 hr doxycycline induction, 293FRT/TO cells, Gaussia luciferase signal; read-out: 24 hr Dox Inducible Her3(ss + 4)Gluc 293FRT/TO: Mean IC50
Summary of the method: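 Compounds, diluted in DMSO/media containing doxycycline, were incubated at 37° C., 5% CO2 with cells seeded one day earlier. The cells stably express HER3-ss+4aa/Gaussia luciferase under T-REx control. Where no stereochemistry is shown, data refer to the mixture of stereoisomers.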

[4] = tested on: IL-2-FL/Gaussia Luciferase; test: Dox Induced IL2-FL-Gluc Assay; conditions: 24 hr doxycycline induction, 293FRT/TO cells, Gaussia luciferase signal; read-out: 24 hr Dox Inducible IL2FLGIuc 293FRT/TO: Mean IC50
Summary of the method: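 Compounds were added together with doxycycline in DMSO/media and incubated at 37° C., 5% CO2. The cells were a stably selected line carrying IL-2-FL/Gaussia luciferase under T-REx inducible control. Structures drawn without stereochemistry were tested as stereoisomer mixtures.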

[5] = tested on: human multiple myeloma cell line NCI-H929; test: H929 Cell Viability Assay; conditions: 48 hr, NCI-H929 cells, Celltiter-Glo, read-out: 48 hr H929 Viability Celltiter-Glo: Mean EC50
Method: Plates were incubated at 37° C., 5% CO2 for 48 hours. After 48 hours, Celltiter-Glo® (Promega) was added to each well and luciferase signal was quantified using Tecan Infinite M1000 Pro for cell viability determination.
For chemical structures that include one or more stereoisomers, but are illustrated without indicating stereochemistry, the assay data refers to a mixture of stereoisomers.

[6] = tested on: human multiple myeloma cell line U266B1; test: U266 Cell Viability Assay; conditions: U-266, 48 hr, U266B1 cells, Celltiter-Glo, read-out: 48 hr U266 Viability Celltiter-Glo: Mean EC50
Summary of the method: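 Viability measured by CellTiter-Glo luciferase signal after 48 h compound exposure (37 °C, 5% CO2) of U266B1 cells in 384-well format. Where stereochemistry is not shown, data refer to the stereoisomer mixture.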

Row | SMILES | IC50 [1] [µM] | IC50 [2] [µM] | IC50 [3] [µM] | IC50 [4] [µM] | EC50 [5] [µM] | EC50 [6] [µM]
1 | CC(C)OC(C)(C)c1csc(NC(=O)c2cccn2C(C)c2ccncc2)n1 (stereo not drawn) [Compound A61] | 1.67 | > 25 | 3.41 | 2.38 | > 25 | > 25
2 | CC(C)OC(C)(C)c1csc(NC(=O)c2cccn2CCCc2ccccc2)n1 [Compound A64, N-(4-(2-isopropoxypropan-2-yl)thiazol-2-yl)-1-(3-phenylpropyl)-1H-pyrrole-2-carboxamide] | 1.73 | > 25 | 3.48 | 2.72 | 23.2 | > 25
3 | CCc1nc(NC(=O)c2cccn2Cc2ccncc2Cl)sc1C [Compound A66, 1-((3-chloropyridin-4-yl)methyl)-N-(4-ethyl-5-methylthiazol-2-yl)-1H-pyrrole-2-carboxamide] | 1.84 | > 25 | 4.15 | 4.78 | > 25 | > 25
4 | CC(C)OC(C)(C)c1csc(NC(=O)c2cccn2CCCc2ccccc2Cl)n1 [Compound A68, 1-(3-(2-chlorophenyl)propyl)-N-(4-(2-isopropoxypropan-2-yl)thiazol-2-yl)-1H-pyrrole-2-carboxamide] | 2.07 | > 25 | 2.73 | 2.76 | > 25 | > 25
5 | COc1cc(Cn2cccc2C(=O)Nc2nc(C(C)(C)OC(C)C)cs2)cc(F)n1 [Compound A70, 1-((2-fluoro-6-methoxypyridin-4-yl)methyl)-N-(4-(2-isopropoxypropan-2-yl)thiazol-2-yl)-1H-pyrrole-2-carboxamide] | 2.23 | > 25 | 9.39 | 5.67 | > 25 | > 25
6 | CC(C)OC(C)(C)c1csc(NC(=O)c2cccn2CC2CCOCC2)n1 [Compound A71] | 2.28 | > 25 | 5.44 | 3.54 | > 25 | > 25
7 | CC(C)OC(C)(C)c1csc(NC(=O)c2cccn2[C@@H](C)c2ccncc2)n1 [Compound A74, (S)-N-(4-(2-isopropoxypropan-2-yl)thiazol-2-yl)-1-(1-(pyridin-4-yl)ethyl)-1H-pyrrole-2-carboxamide] | 2.57 | > 25 | 5.39 | 4.22 | > 25 | > 25
8 | Cc1ccc(C(=O)Nc2nc(C(C)(C)OC(C)C)cs2)n1Cc1ccncc1 [Compound A76, N-(4-(2-isopropoxypropan-2-yl)thiazol-2-yl)-5-methyl-1-(pyridin-4-ylmethyl)-1H-pyrrole-2-carboxamide] | 2.73 | > 25 | 12.5 | 3.99 | > 25 | > 25
9 | CC(C)OC(C)(C)c1csc(NC(=O)c2cccn2Cc2ccccc2Cl)n1 [Compound A78] | 3.16 | > 25 | 7.88 | 6.38 | 20.9 | > 25
10 | CC(C)OC(C)(C)c1csc(NC(=O)c2cccn2Cc2ccc(C#N)cc2)n1 [Compound A80, 1-(4-cyanobenzyl)-N-(4-(2-isopropoxypropan-2-yl)thiazol-2-yl)-1H-pyrrole-2-carboxamide] | 4.22 | > 25 | 7.88 | 3.53 | 21.9 | > 25
11 | CC(C)OC(C)(C)c1csc(NC(=O)c2cccn2Cc2ccc(S(C)(=O)=O)cc2)n1 [Compound A84, N-(4-(2-isopropoxypropan-2-yl)thiazol-2-yl)-1-(4-(methylsulfonyl)benzyl)-1H-pyrrole-2-carboxamide] | 6.34 | > 25 | > 25 | 5.82 | > 25 | > 25

Second part, the compound after the results:

Row | IC50 [1] [µM] | IC50 [2] [µM] | IC50 [3] [µM] | IC50 [4] [µM] | EC50 [5] [µM] | EC50 [6] [µM] | SMILES
12 | 1.51 | 16.6 | 11.9 | 3.62 | > 25 | > 25 | CC(C)OCc1csc(NC(=O)c2cccn2Cc2ccncc2)n1 [Compound A59, N-(4-(isopropoxymethyl)thiazol-2-yl)-1-(pyridin-4-ylmethyl)-1H-pyrrole-2-carboxamide]
13 | 1.57 | > 25 | 3.75 | 2.69 | > 25 | > 25 | O=C(Nc1nc2ccsc2s1)c1cccn1Cc1ccncc1 [Compound A60]
14 | 1.69 | > 25 | 4.3 | 5.07 | > 25 | > 25 | CCCc1cnc(NC(=O)c2cccn2Cc2ccncc2)s1 [Compound A62]
15 | 1.72 | > 25 | 10.6 | > 25 | > 25 | > 25 | Cc1csc(NC(=O)c2cccn2Cc2ccncc2)n1 [Compound A63, N-(4-methylthiazol-2-yl)-1-(pyridin-4-ylmethyl)-1H-pyrrole-2-carboxamide]
16 | 1.79 | > 25 | 4.13 | 11.2 | > 25 | > 25 | CCc1cnc(NC(=O)c2cccn2Cc2ccncc2)s1 [Compound A65]
17 | 1.88 | > 25 | 3.24 | 2.08 | > 25 | > 25 | CC1(c2csc(NC(=O)c3cccn3Cc3ccncc3)n2)CC1 [Compound A67, N-(4-(1-methylcyclopropyl)thiazol-2-yl)-1-(pyridin-4-ylmethyl)-1H-pyrrole-2-carboxamide]
18 | 2.08 | > 25 | 6.22 | 4.17 | > 25 | > 25 | CC(C)OC(C)(C)c1csc(NC(=O)c2cccn2Cc2ccnnc2)n1 [Compound A69, N-(4-(2-isopropoxypropan-2-yl)thiazol-2-yl)-1-(pyridazin-4-ylmethyl)-1H-pyrrole-2-carboxamide]
19 | 2.47 | > 25 | 6.11 | 22.4 | > 25 | > 25 | Cc1cnc(NC(=O)c2cccn2Cc2ccncc2)s1 [Compound A72, N-(5-methylthiazol-2-yl)-1-(pyridin-4-ylmethyl)-1H-pyrrole-2-carboxamide]
20 | 2.47 | > 25 | 7.28 | 2.02 | > 25 | > 25 | Cc1ccc2nc(NC(=O)c3cccn3Cc3ccncc3)sc2c1 [Compound A73]
21 | 3.05 | > 25 | 4.68 | 3.1 | 25 | > 25 | CC(C)(C)c1csc(NC(=O)c2cccn2Cc2ccncc2Cl)n1 [Compound A77, N-(4-(tert-butyl)thiazol-2-yl)-1-((3-chloropyridin-4-yl)methyl)-1H-pyrrole-2-carboxamide]
22 | 3.18 | > 25 | 5.26 | 4.15 | 24.9 | > 25 | CC(C)OC(C)(C)c1csc(NC(=O)c2cccn2Cc2ccccc2)n1 [Compound A79, 1-benzyl-N-(4-(2-isopropoxypropan-2-yl)thiazol-2-yl)-1H-pyrrole-2-carboxamide]
23 | 4.62 | > 25 | 23 | > 25 | > 25 | > 25 | COCc1csc(NC(=O)c2cccn2Cc2ccncc2)n1 [Compound A81]
24 | 4.66 | > 25 | > 25 | > 25 | > 25 | > 25 | COc1cnc(NC(=O)c2cccn2Cc2ccncc2)s1 [Compound A82]
25 | 5.37 | > 25 | > 25 | 4.52 | > 25 | > 25 | Cc1cc(Cn2cccc2C(=O)Nc2nc(C(C)(C)OC(C)C)cs2)ccn1 [Compound A83, N-(4-(2-isopropoxypropan-2-yl)thiazol-2-yl)-1-((2-methylpyridin-4-yl)methyl)-1H-pyrrole-2-carboxamide]
